The source of these data is US8440641B2, “Phthalocyanine salt formulations” (Case Western Reserve University, priority 2009, dated 2013).

Common to all, as to assay type: physicochemical
Data set [1] in a line: Chemical stability (air, chromatography). The settings on record: air.
A short description of data set [2]: Qualitative solubility in representative organic solvents. The settings on record: for solubility in CH2Cl2: CH2Cl2, qualitative; for solubility in dimethylformamide / solubility in ethanol / solubility in hexanes / solubility in toluene: qualitative.
Data set [3] in a line: Photofading of phthalocyanines on irradiation with tungsten lamp light. Particulars: toluene ~0.01 mM, 300 W tungsten lamp, 30 cm, room temperature. Here is the method: Linolenate Ester of SiPc(OH)2, SiPc(OC(O)(CH2)6(CH2CH═CH)3 CH2CH3]2. A solution of the linolenate ester of SiPc(OH)2 in toluene (˜0.01 mM) in a capped quartz cuvette was irradiated at room temperature with light from a tungsten lamp (300 W) in a projector (Kodak […] III E, Kodak, Japan) with a lamp-to-cuvette separation of 30 cm. The UV-vis absorption of the solution at 684 nm was taken periodically and the percent ester remaining was calculated.
The compounds below Table 7 show phthalocyanines with (a) polyunsaturated ester ligands and (b) with polyunsaturated anions

Data set [4] can be described thus: Salt concentration in polar and nonpolar solvents (Table 2). The settings on record: for solubility in hexanes and mineral oil: mineral oil (Nujol).
Data set [5] is described as follows: Quantitative solubility (concentration) in H2O and aqueous dispersants. An excerpt:
Disperstants are agents added to an aqueous solution to prevent clumping, and include a number of surfactant and surfactant-like molecules. […]

“And” between values parts separate entries of the source, which are not always exact repeats. Equal entries are not always repeated.

As to “[ClSiPcOSi(CH3)2(CH2)3NH(CH3)2]^+Cl^− [Compound 28]”, the “time of hydrolysis by air to Pc 4” value in data set [1] is listed as at most 30 min. For the same compound, in data set [2], the “solubility in CH2Cl2” value is listed as “soluble”, the solubility in dimethylformamide result is on record as “soluble”, the solubility in ethanol result is given as “soluble” and the solubility in hexanes result is recorded as “insoluble”. Moreover, the solubility in toluene result in data set [2] was “moderately soluble”.
For the compound `CN(C)CCC[Si](C)(C)O[Si]1(O)n2c3c4ccccc4c2N=C2N=C(N=c4c5ccccc5c(n41)=NC1=NC(=N3)c3ccccc31)c1ccccc12.CP(C)(=O)O` (stereo not drawn) [Compound 13, [HOSiPcOSi(CH3)2(CH2)3NH(CH2)2]^+[(CH3)2P(O)O]^−], in data set [2], the “solubility in CH2Cl2” value was “soluble”, the solubility in dimethylformamide result was “soluble”, the solubility in ethanol result was “soluble” and the solubility in hexanes entry is listed as “insoluble”. Besides, in data set [2], the solubility in toluene entry is “moderately soluble”.
Turning to “H(OCH2CH2)˜9OC(O)(CH2)2C(O)OH [Compound 19]”, in data set [2], the “solubility in CH2Cl2” value is “soluble”, the solubility in dimethylformamide result is listed as “soluble”, the solubility in ethanol result is “soluble” and the solubility in hexanes result is listed as “insoluble”. Also, the solubility in toluene result in data set [2] is recorded as “moderately soluble”.
Regarding SiPc[OC(O)(CH2)17]2 [stearic ester], the “% left” value in data set [3] (20 hrs irradiation) turned out to be 100%.
Take “[HOSiPcOSi(CH3)2(CH2)3NH(CH2)2]^+[C27H29N2O7S2]^− [Compound 14]”: in data set [2], the “solubility in CH2Cl2” value is reported as “soluble”, the solubility in dimethylformamide result is “soluble”, the solubility in ethanol entry is “soluble” and the solubility in hexanes entry is “insoluble”. In addition, the solubility in toluene entry in data set [2] was “moderately soluble”.
Turning to `CN(C)CCC[Si](C)(C)O[Si]1(O)n2c3c4ccccc4c2N=C2N=C(N=c4c5ccccc5c(n41)=NC1=NC(=N3)c3ccccc31)c1ccccc12.O=C(O)CCC(=O)OCCOCCOCCOCCOCCOCCOCCOCCOCCO` (stereo not drawn) [Compound 20, [HOSiPcOSi(CH3)2(CH2)3NH(CH3)2]^+[H(OCH2CH2)9OC(O)(CH2)2C(O)O]^−], in data set [2], the “solubility in CH2Cl2” value is reported as “soluble”, the solubility in dimethylformamide entry is listed as “soluble”, the solubility in ethanol entry is listed as “soluble” and the solubility in hexanes result is listed as “insoluble”. Moreover, the solubility in toluene entry in data set [2] is on record as “moderately soluble”.
Take `CN(C)CCC[Si](C)(C)O[Si]1(O)n2c3c4ccccc4c2N=C2N=C(N=c4c5ccccc5c(n41)=NC1=NC(=N3)c3ccccc31)c1ccccc12.CS(=O)(=O)O` (stereo not drawn) [Compound 26, [HOSiPcOSi(CH3)2(CH2)3NH(CH3)2]^+[CH3SO3]^−]: in data set [4], the “salt concentration, […] aqueous Tween 80” value was found to be 0.262 mM; the “salt concentration, hexanes” value was 0.002 mM; the “salt concentration, mineral oil” value was found to be 0.002 mM. In addition, in data set [4] (in words), the “solubility in aqueous solution” value is “show solubility”; the “solubility in hexanes and mineral oil” value is given as “little”.
Take `CCC=CCC=CCC=CCC=CCC=CCC=CCCC(=O)O.CCC=CCC=CCC=CCC=CCC=CCC=CCCC(=O)O.CN(C)CCC[Si](C)(C)O[Si]1(O[Si](C)(C)CCCN(C)C)n2c3c4ccccc4c2N=C2N=C(N=c4c5ccccc5c(n41)=NC1=NC(=N3)c3ccccc31)c1ccccc12` [DHA salt, {SiPc[OSi(CH3)2(CH2)3NH(CH3)2]2}^2+[CH3CH2(CH═CHCH2)6CH2COO^−]2]: the results for the “% left” value in data set [3] (4 hrs irradiation) and in data set [3] (8 hrs irradiation) were 72% and 62%, respectively.
Turning to “[HOSiPcOSi(CH3)2(CH2)3NH(CH3)2]^+[H(OCH2CH2)˜76O(O)C(CH2)2C(O)O]^− [Compound 22]”, in data set [2], the “solubility in CH2Cl2” value is listed as “soluble”, the solubility in dimethylformamide result was “soluble”, the solubility in ethanol entry is reported as “soluble” and the solubility in hexanes result is “insoluble”. The solubility in toluene result in data set [2] is listed as “moderately soluble”.
Regarding `CN(C)CCC[Si](C)(C)O[Si]1(O)n2c3c4ccccc4c2N=C2N=C(N=c4c5ccccc5c(n41)=NC1=NC(=N3)c3ccccc31)c1ccccc12.COC(=O)c1ccccc1C(=O)O` (stereo not drawn) [Compound 10, [HOSiPcOSi(CH3)2(CH2)3NH(CH2)2]^+[2-(CH3OC(O))C6H4C(O)O]^−], in data set [2], the “solubility in CH2Cl2” value is on record as “soluble”, the solubility in dimethylformamide result is listed as “soluble”, the solubility in ethanol entry was “soluble” and the solubility in hexanes entry was “insoluble”. Further, the solubility in toluene result in data set [2] is given as “moderately soluble”.
Turning to “[HOSiPcOSi(CH3)2(CH2)3NH(CH2)2]^+[C33H53O5]^− [Compound 11]”, in data set [4], the “salt concentration, […] aqueous Tween 80” value was 0.004 mM; the “salt concentration, hexanes” value is 0.065 mM; the “salt concentration, mineral oil” value was 0.029 mM. In addition, in data set [4] (in words), the “solubility in aqueous solution” value is reported as “only slight solubility”; the “solubility in hexanes and mineral oil” value was “significant solubility”. The solubility in petrolatum result in data set [4] (petrolatum (Vaseline), in words) is “significant solubility”. In addition, in data set [2], the “solubility in CH2Cl2” value was “soluble”, the solubility in dimethylformamide result was “soluble”, the solubility in ethanol entry is “soluble” and the solubility in hexanes result is on record as “slightly soluble”. For the same compound, the solubility in toluene entry in data set [2] is listed as “moderately soluble”.
Regarding “[HOSiPcOSi(CH3)2(CH2)3NH(CH3)2]^+[4-C9H19C6H4-1-(OCH2CH2)˜20O(CH2)3SO3]^− [Compound 18]”, the “salt conc in dilute aqueous Tween 80” value in data set [5] (Tween 80 7.2 mg/mL ([…])) was determined as 874 µM. Moreover, the salt conc was 50 μg/mL and 70 μM in data set [5] (aqueous Dow Corning 193 7.2 mg/mL, listed as Pc 245); 9.3 μg/mL and 13 μM in data set [5] (aqueous PEG methyl ether 350 7.2 mg/mL (21 mM), listed as Pc 245); 0.022 μg/mL and 0.031 μM in data set [5] (aqueous PEG methyl ether 750 7.2 mg/mL (9.6 mM), listed as Pc 245); 1.3 μg/mL and 1.8 μM in data set [5] (aqueous PEG methyl ether 2000 7.2 mg/mL (3.6 mM), listed as Pc 245); 3.4 μg/mL and 4.8 μM in data set [5] (aqueous PEG methyl ether 5000 7.2 mg/mL (1.4 mM), listed as Pc 245); 1418 µM in data set [5] (aqueous potassium poly(ethylene glycol)-4-nonylphenyl-3-sulfopropyl ether 7.2 mg/mL (5.0 mM)). The salt conc in data set [5] (aqueous potassium poly(ethylene glycol)-4-nonylphenyl-3-sulfopropyl ether 7.2 mg/mL (5.0 mM), listed as Pc 245) is ~1018 μg/mL and ~1418 μM; in data set [5] (aqueous povidone 7.2 mg/mL (0.18 mM), listed as Pc 245) it was 14 μg/mL and 19 μM. In addition, the “solubility in CH2Cl2” value in data set [2] is “soluble”. In addition, in data set [2], the solubility in dimethylformamide result is reported as “soluble”. For the same compound, the solubility in ethanol result in data set [2] is listed as “soluble”. Moreover, in data set [2], the solubility in hexanes entry is recorded as “insoluble”. The solubility in toluene result in data set [2] was “moderately soluble”.
In the case of “CH3(OCH2CH2)˜45OC(O)(CH2)2C(O)OH [Compound 23]”, in data set [2], the “solubility in CH2Cl2” value is listed as “soluble”, the solubility in dimethylformamide result is recorded as “soluble”, the solubility in ethanol entry is recorded as “soluble” and the solubility in hexanes result was “insoluble”. For the same compound, the solubility in toluene result in data set [2] is recorded as “moderately soluble”.
Consider “H(OCH2CH2)˜76OOC(CH2)2COOH [Compound 21]”, for which, in data set [2], the “solubility in CH2Cl2” value was “soluble”, the solubility in dimethylformamide entry was “soluble”, the solubility in ethanol entry is listed as “soluble” and the solubility in hexanes result is given as “insoluble”. Further, the solubility in toluene result in data set [2] was “moderately soluble”.
In the case of “{SiPc[OSi(CH3)2(CH2)3NH(CH3)2]2}^2+[CH3CH2(CH═CHCH2)3(CH2)6COO^−]2 [linolenic salt]”, the “% left” value came out at 79% in data set [3] (12 hrs irradiation) and 73% in data set [3] (20 hrs irradiation).
As for “[HOSiPcOSi(CH3)2(CH2)3NH(CH3)2]^+[CH3(OCH2CH2)˜45OC(O)(CH2)2C(O)O]^− [Compound 24]”, in data set [2], the “solubility in CH2Cl2” value is “soluble”, the solubility in dimethylformamide result was “soluble”, the solubility in ethanol entry is listed as “soluble” and the solubility in hexanes entry was “insoluble”. In addition, the solubility in toluene result in data set [2] is recorded as “moderately soluble”.
“SiPc(OC(O)(CH2)6(CH2CH═CH)2(CH2)4CH3]2 [linoleic ester]”: the “% left” value came to 95% in data set [3] (4 hrs irradiation), 95% in data set [3] (12 hrs irradiation) and 94% in data set [3] (20 hrs irradiation).
With `CN(C)CCC[Si](C)(C)O[Si]1(O)n2c3c4ccccc4c2N=C2N=C(N=c4c5ccccc5c(n41)=NC1=NC(=N3)c3ccccc31)c1ccccc12` (stereo not drawn) [Pc 4, HOSiPcOSi(CH3)2(CH2)3N(CH3)2, reference compound], the “Pc 4 conc” value in data set [5] (H2O, no dispersant) is 0.0 μg/mL and 0.0 μM; in data set [5] (aqueous 1,6-hexanediol 7.2 mg/mL (61 mM)), 7.2 μg/mL and 10 μM; in data set [5] (aqueous Dow Corning 193 7.2 mg/mL), 0.29 μg/mL and 0.40 μM; in data set [5] (aqueous potassium poly(ethylene glycol)-4-nonylphenyl-3-sulfopropyl ether 7.2 mg/mL (5.7 mM)), 4.3 μg/mL and 6.0 μM; in data set [5] (aqueous povidone 7.2 mg/mL (0.18 mM)) it was 0.09 μg/mL and 0.12 μM.
With “4-C9H19C6H4-1-(OCH2CH2)˜20O(CH2)3SO3H [Compound 17]”, in data set [2], the “solubility in CH2Cl2” value was “soluble”, the solubility in dimethylformamide entry is “soluble”, the solubility in ethanol result is reported as “soluble” and the solubility in hexanes result is given as “insoluble”. Moreover, in data set [2], the solubility in toluene entry is recorded as “moderately soluble”.
